The values that follow come from patent publication US6664271B1, “Immunopotentiator agents” (Eli Lilly and Company, priority 1999, dated 2003).

Marks after values point to notes of the source that are not given here.

For one data set, the system named is chicken leukocytes. Nature of the data set: cells. The format is cell-based. The procedure, abridged: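 Leukocytes came from EDTA-anticoagulated cardiac blood of 3-6 week old broiler chickens. They were isolated by methylcellulose sedimentation and differential centrifugation, washed in PBS with 50 μg/ml gentamicin, and resuspended in supplemented RPMI 1640. Viable cells were counted by Trypan Blue exclusion.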

In a further data set the test system is E. coli 19B. The data set can be described thus: bacterial clearance of E. coli from peripheral blood of neonatal chicks (Example 77). Format: in vivo, chick. Particulars: single subcutaneous injection of 25 μg, E. coli challenge, blood 14-18 hours post-challenge. The method, then:
The compounds of Example 15 ((S)-ethyl 1-benzoyl-3-piperidinecarboxylate), Example 29 (1-benzoyl-3-butyrylpiperidine), Example 30 ((S)-ethyl 1-(2-thiopheneacetyl)-3-piperidinecarboxylate) and Example 68 ((S)-ethyl 1-benzyl-3-piperidinecarboxylate 1-methiodide), respectively, were tested to determine whether a single subcutaneous injection enhanced the bacterial clearance of E. coli from the peripheral blood of neonatal chicks. Bacterial clearance is a measurement of cell-mediated immunity, specifically, phagocyte function, in animals. An approved Animal Care and Use Committee protocol governed the activity in this experiment.
1 ml syringes with 21 g 1″ needles (Becton Dickinson and Company Franklin Lakes, N.J. 07417-1884); 1 ml syringe with 25 g ⅝″ needles (Becton Dickinson and Company Franklin Lakes, N.J. 07417-1884); EMB agar plates (Difco Laboratories, Becton Dickinson Microbiology Systems, Sparks, Md. 21152); Culture tubes (14 ml polystyrene round bottom, Becton Dickinson Labware, Franklin Lakes, N.J. 07417-1886); Dulbecco's Phosphate Buffered Saline w/o Mg^++ or Ca^++ (Gibco BRL, Life Technologies Rockville, Md. 20850). Peterson x Hubbard male chicks (day of hatch from a commercial hatchery) were utilized
160 chicks were divided into 6 groups: Group 1=Controls (acetate-buffered saline vehicle); Group 2=Compound of Example 15 ((S)-ethyl 1-benzoyl-3-piperidinecarboxylate); Group 3=Compound of Example 29 (1-benzoyl-3-butyrylpiperidine); Group 4=Compound of Example 30 ((S)-ethyl 1-(2-thiopheneacetyl)-3-piperidinecarboxylate); Group 5=Compound of Example 68 ((S)-ethyl 1-benzyl-3-piperidinecarboxylate 1-methiodide); and Group 6=environmental controls. Groups 1-5 contained 3 replicates of 10 chicks each and Group 6 contained 1 replicate of 10 chicks.
Day −2 Upon arrival, day of hatch chicks were randomized (10/group), and placed in a Petersime heated brooder battery unit (Petersime Incubator Company, Gettysburg, Ohio 45328). […] All chicks were given ad libitum access to a commercially available starter feed and water.
Day 0 11:00 AM. Five to ten colonies of E. coli 19B were selected from a fresh overnight blood agar plate (TSA II with 5% sheep blood, Becton Dickinson Microbiology Systems Cockeysville, Md. 21030) and placed into 100 ml Brain Heart Infusion broth (Difco Laboratories, Becton Dickinson Microbiology Systems Sparks, Md. 21152) in a flask. […]
Day 5 EMB plates were removed from the incubator and bacterial colonies were counted and recorded to calculate CFU/ml/chick.
Data was transformed to logio values, and analysis of variance was used to determine significant differences between the treatment groups and controls. Data was expressed as the percentage of enhancedbacterial clearance compared to E. coli-challenged controls. […]

As to `CCOC(=O)[C@H]1CCCN(C(=O)Cc2cccs2)C1` [Example 30, (S)-Ethyl 1-(2-Thiopheneacetyl)-3-piperidinecarboxylate], the minimal effective concentration in the data set on chicken leukocytes (Gallus gallus, Leukocyte, chicken leukocytes, read at 72 hours, read-out: MSC (Minimum Stimulatory Concentration)) came to 0.1 µg/mL. Further, in the data set on chicken leukocytes (Hubbard/Peterson broiler, chicken, 72 h), the “MTC (Maximum Tolerable Concentration prior to causing cytotoxicity)” value was found to be 10 µg/mL. In the data set on E. coli 19B, the “% Enhanced Clearance Compared to Controls” value was 61* %.
